Measured values taken from patent US20210323981A1, “FREE AMINO COMPOUNDS FOR THE TREATMENT AND PROPHYLAXIS OF BACTERIAL INFECTION” (Hoffmann-La Roche Inc., priority 2018, published 2021).

What was measured:
Type in all cases: cell-based
A. baumannii (ATCC17978) = test: 50% growth inhibitory concentration (IC50) determination assay, A. baumannii; conditions: Acinetobacter baumannii, growth inhibition, Iso-Sensitest broth, OD 600 nm over 16 h, <0.098 = detection limit
Experimental: (§1) The in vitro antimicrobial activity of the compounds against S. aureus (ATCC29213), K. pneumoniae (ATCC10031), and A. baumannii (ATCC17978), was determined according to the following procedure: The assay used a 10-points Iso-Sensitest broth medium to measure quantitatively the in vitro activity of the compounds against S. aureus ATCC29213, K. pneumoniae ATCC 10031, and A. baumannii ATCC17978. Stock compounds in DMSO were serially two-fold diluted (range from 50 to 0.097 μM final concentration) in 384 wells microtiter plates and inoculated with 49 μL the bacterial suspension in Iso-Sensitest broth medium to have a final cell concentration of ˜5×10^5 CFU/mL in a final volume/well of 50 μL/well. Microtiter plates were incubated at 35±2° C. Bacterial cell growth was determined with the measurement of optical density at k=600 nm each 20 minutes over a time course of 16 h. Growth inhibition was calculated during the logarithmic growth of the bacterial cells with determination of the concentration inhibiting 50% (IC50) of the growth.

[1] = test system: K. pneumoniae (ATCC10031); test: 50% growth inhibitory concentration (IC50) determination assay, K. pneumoniae; conditions: Klebsiella pneumoniae, growth inhibition, Iso-Sensitest broth, OD 600 nm over 16 h, <0.098 μM = detection limit
Experimental: as §1

S. aureus (ATCC29213) = test: 50% growth inhibitory concentration (IC50) determination assay, S. aureus; conditions: Staphylococcus aureus, growth inhibition, Iso-Sensitest broth, OD 600 nm over 16 h, <0.098 μM = detection limit
Experimental: as §1

In the case of `CNc1cc(F)c(F)c2c1[nH]c1ncc(-c3cnc4c(c3)c(=O)c(C(=O)O)cn4C)c(N3CCC4(C[C@@H]4N)C3)c12` (mixture of isomers) [Example 2.01, Trans-6-[4-(2-amino-5-azaspiro[2.4]heptan-5-yl)-5,6-difluoro-8-(methylamino)-9H-pyrido[2,3-b]indol-3-yl]-1-methyl-4-oxo-1,8-naphthyridine-3-carboxylic acid], the IC50 (A. baumannii (ATCC17978)) was 0.155 µM, the IC50 [1] was less than 0.098 µM and the IC50 (S. aureus (ATCC29213)) was less than 0.098 µM.
Compound `CNc1cc(F)c(F)c2c1[nH]c1ncc(-c3cnc4c(c3)c(=O)c(C(=O)O)cn4C)c(N3CCC4(C[C@H]4N)C3)c12` (mixture of isomers) [Example 2.02, Cis-6-[4-(2-amino-5-azaspiro[2.4]heptan-5-yl)-5,6-difluoro-8-(methylamino)-9H-pyrido[2,3-b]indol-3-yl]-1-methyl-4-oxo-1,8-naphthyridine-3-carboxylic acid] has an IC50 (A. baumannii (ATCC17978)) of 0.261 µM, an IC50 [1] of less than 0.098 µM and an IC50 (S. aureus (ATCC29213)) of less than 0.098 µM.
`CNc1cc(F)c(F)c2c1[nH]c1ncc(-c3cnc4c(c3)c(=O)c(C(=O)O)cn4C)c(N3CC[C@H]4CN(CCCN)C[C@H]43)c12` (relative stereo) [Example 1.07, cis-6-[5,6-Difluoro-8-(methylamino)-4-[5-(3-aminopropyl)-2,3,3a,4,6,6a-hexahydropyrrolo[2,3-c]pyrrol-1-yl]-9H-pyrido[2,3-b]indol-3-yl]-1-methyl-4-oxo-1,8-naphthyridine-3-carboxylic acid] gave an IC50 (A. baumannii (ATCC17978)) of 4.79 µM, an IC50 [1] of 0.429 µM and an IC50 (S. aureus (ATCC29213)) of 1.67 µM.
Compound `CNc1cc(F)c(C#N)c2c1[nH]c1ncc(-c3cnc4c(c3)c(=O)c(C(=O)O)cn4C)c(N3C[C@H]4CC[C@@H](N)[C@H]4C3)c12` (relative stereo) [Example 1.13, 6-[5-Cyano-6-fluoro-8-(methylamino)-4-[rel-(3aR,4R,6aS)-4-amino-3,3a,4,5,6,6a-hexahydro-1H-cyclopenta[c]pyrrol-2-yl]-9H-pyrido[2,3-b]indol-3-yl]-1-methyl-4-oxo-1,8-naphthyridine-3-carboxylic acid] has an IC50 (A. baumannii (ATCC17978)) of 2.79 µM, an IC50 [1] of 0.128 µM and an IC50 (S. aureus (ATCC29213)) of 0.151 µM.
Work on `CNc1cc(F)c(F)c2c1[nH]c1ncc(-c3cnc4c(c3)c(=O)c(C(=O)O)cn4C)c(N3C[C@H]4CCC[C@@]4(N)C3)c12` (stereo in doubt) [Example 1.12, trans-6-(5,6-Difluoro-8-(methylamino)-4-[3a-amino-1,3,4,5,6,6a-hexahydrocyclopenta[c]pyrrol-2-yl]-9H-pyrido[2,3-b]indol-3-yl)-1-methyl-4-oxo-1,8-naphthyridine-3-carboxylic acid] yielded an IC50 (A. baumannii (ATCC17978)) of 0.889 µM, an IC50 [1] of less than 0.098 µM and an IC50 (S. aureus (ATCC29213)) of 0.448 µM.
For `CNc1cc(F)c(F)c2c1[nH]c1ncc(-c3cnc4c(c3)c(=O)c(C(=O)O)cn4C)c(N3CC4(CCC4N)C3)c12` (centres unmarked) [Example 1.02, 6-[4-(7-Amino-2-azaspiro[3.3]heptan-2-yl)-5,6-difluoro-8-(methylamino)-9H-pyrido[2,3-b]indol-3-yl]-1-methyl-4-oxo-1,8-naphthyridine-3-carboxylic acid], the IC50 (A. baumannii (ATCC17978)) was 2.86 µM, the IC50 [1] was less than 0.098 µM and the IC50 (S. aureus (ATCC29213)) was 3.89 µM.
With `CCn1cc(C(=O)O)c(=O)c2cc(-c3cnc4[nH]c5c(NC)cc(F)c(F)c5c4c3N3CCC(N)C3)cnc21` (centres unmarked) [Example 1.03, 6-[4-(3-Aminopyrrolidin-1-yl)-5,6-difluoro-8-(methylamino)-9H-pyrido[2,3-b]indol-3-yl]-1-ethyl-4-oxo-1,8-naphthyridine-3-carboxylic acid] the IC50 (A. baumannii (ATCC17978)) was 1.49 µM, the IC50 [1] was less than 0.098 µM and the IC50 (S. aureus (ATCC29213)) was 0.944 µM.
`CCn1cc(C(=O)O)c(=O)c2cc(-c3cnc4[nH]c5c(NC)cc(F)c(F)c5c4c3N3CCC(CN)C3)cnc21` (centres unmarked) [Example 1.04, 6-(4-(3-(Aminomethyl)pyrrolidin-1-yl)-5,6-difluoro-8-(methylamino)-9H-pyrido[2,3-b]indol-3-yl)-1-ethyl-4-oxo-1,4-dihydro-1,8-naphthyridine-3-carboxylic acid] was tested, and the IC50 (A. baumannii (ATCC17978)) was 1.33 µM, the IC50 [1] was 0.11 µM and the IC50 (S. aureus (ATCC29213)) was 0.572 µM.
`CNc1cc(F)c(F)c2c1[nH]c1ncc(-c3cnc4c(c3)c(=O)c(C(=O)O)cn4C)c(N3CCC(N)(C(F)(F)F)C3)c12` (centres unmarked) [Example 1.05, 6-(4-(3-Amino-3-(trifluoromethyl)pyrrolidin-1-yl)-5,6-difluoro-8-(methylamino)-9H-pyrido[2,3-b]indol-3-yl)-1-methyl-4-oxo-1,4-dihydro-1,8-naphthyridine-3-carboxylic acid] showed an IC50 (S. aureus (ATCC29213)) of less than 0.098 µM.
Compound `CNc1cc(F)c(F)c2c1[nH]c1ncc(-c3cnc4c(c3)c(=O)c(C(=O)O)cn4C)c(N3CC4CC4(CN)C3)c12` (centres unmarked) [Example 1.06, 6-[4-[1-(Aminomethyl)-3-azabicyclo[3.1.0]hexan-3-yl]-5,6-difluoro-8-(methylamino)-9H-pyrido[2,3-b]indol-3-yl]-1-methyl-4-oxo-1,8-naphthyridine-3-carboxylic acid] has an IC50 (A. baumannii (ATCC17978)) of 2.48 µM, an IC50 [1] of less than 0.098 µM and an IC50 (S. aureus (ATCC29213)) of 0.342 µM.
For `CNc1cc(F)c(F)c2c1[nH]c1ncc(-c3cnc4c(c3)c(=O)c(C(=O)O)cn4C)c(N3C[C@@H]4[C@@H](N)[C@@H]4C3)c12` [Example 1.08, 6-[5,6-Difluoro-8-(methylamino)-4-[rel-(1S,5R)-6-amino-3-azabicyclo[3.1.0]hexan-3-yl]-9H-pyrido[2,3-b]indol-3-yl]-1-methyl-4-oxo-1,8-naphthyridine-3-carboxylic acid], the IC50 (A. baumannii (ATCC17978)) was 0.654 µM, the IC50 [1] was less than 0.098 µM and the IC50 (S. aureus (ATCC29213)) was 0.314 µM.
In the case of `CNc1cc(F)c(F)c2c1[nH]c1ncc(-c3cnc4c(c3)c(=O)c(C(=O)O)cn4C)c(N3CCCC3CN)c12` (centres unmarked) [Example 1.09, 6-[4-[2-(Aminomethyl)pyrrolidin-1-yl]-5,6-difluoro-8-(methylamino)-9H-pyrido[2,3-b]indol-3-yl]-1-methyl-4-oxo-1,8-naphthyridine-3-carboxylic acid], the IC50 (A. baumannii (ATCC17978)) was 3.72 µM, the IC50 [1] was 0.25 µM and the IC50 (S. aureus (ATCC29213)) was 0.513 µM.
In the case of `CNc1cc(F)c(F)c2c1[nH]c1ncc(-c3cnc4c(c3)c(=O)c(C(=O)O)cn4C)c(N3CCC(CN)C3)c12` (centres unmarked) [Example 1.11, 6-[4-[3-(Aminomethyl)pyrrolidin-1-yl]-5,6-difluoro-8-(methylamino)-9H-pyrido[2,3-b]indol-3-yl]-1-methyl-4-oxo-1,8-naphthyridine-3-carboxylic acid], the IC50 (A. baumannii (ATCC17978)) was 3.62 µM, the IC50 [1] was less than 0.098 µM and the IC50 (S. aureus (ATCC29213)) was 0.294 µM.
`CNc1cc(F)c(F)c2c1[nH]c1ncc(-c3cnc4c(c3)c(=O)c(C(=O)O)cn4C)c(N3CCC(F)(CN)C3)c12` (centres unmarked) [Example 1.16, 6-[4-[3-(Aminomethyl)-3-fluoro-pyrrolidin-1-yl]-5,6-difluoro-8-(methylamino)-9H-pyrido[2,3-b]indol-3-yl]-1-methyl-4-oxo-1,8-naphthyridine-3-carboxylic acid] was tested, and the IC50 [1] was less than 0.098 µM and the IC50 (S. aureus (ATCC29213)) was less than 0.098 µM.
With `CNc1cc(F)c(F)c2c1[nH]c1ncc(-c3cnc4c(c3)c(=O)c(C(=O)O)cn4C)c(N3CC[C@@H](N)C3)c12` [Example 1.17, 6-[4-[(3R)-3-Aminopyrrolidin-1-yl]-5,6-difluoro-8-(methylamino)-9H-pyrido[2,3-b]indol-3-yl]-1-methyl-4-oxo-1,8-naphthyridine-3-carboxylic acid] the IC50 (A. baumannii (ATCC17978)) was 2.95 µM, the IC50 [1] was less than 0.098 µM and the IC50 (S. aureus (ATCC29213)) was 0.532 µM.
Compound `CNc1cc(F)c(F)c2c1[nH]c1ncc(-c3cnc4c(c3)c(=O)c(C(=O)O)cn4C)c(N3CC[C@]4(C[C@@H]4N)C3)c12` [Example 3.04, 6-[4-[(2S,3S)-2-Amino-5-azaspiro[2.4]heptan-5-yl]-5,6-difluoro-8-(methylamino)-9H-pyrido[2,3-b]indol-3-yl]-1-methyl-4-oxo-1,8-naphthyridine-3-carboxylic acid] has an IC50 (A. baumannii (ATCC17978)) of 0.175 µM, an IC50 [1] of less than 0.098 µM and an IC50 (S. aureus (ATCC29213)) of less than 0.098 µM.
For `CNc1cc(F)c(Cl)c2c1[nH]c1ncc(-c3cnc4c(c3)c(=O)c(C(=O)O)cn4C)c(N3CC[C@@]4(C[C@H]4N)C3)c12` [Example 4.01, 6-[4-[(2R,3R)-2-Amino-5-azaspiro[2.4]heptan-5-yl]-5-chloro-6-fluoro-8-(methylamino)-9H-pyrido[2,3-b]indol-3-yl]-1-methyl-4-oxo-1,8-naphthyridine-3-carboxylic acid], the IC50 (A. baumannii (ATCC17978)) was 0.0765 µM, the IC50 [1] was less than 0.098 µM and the IC50 (S. aureus (ATCC29213)) was less than 0.098 µM.
For `CNc1cc(F)c(F)c2c1[nH]c1ncc(-c3cnc4c(c3)c(=O)c(C(=O)O)cn4C)c(N3CCC[C@@]4(C[C@H]4N)C3)c12` [Example 6.01, 6-[4-[(2R,3R)-2-Amino-5-azaspiro[2.5]octan-5-yl]-5,6-difluoro-8-(methylamino)-9H-pyrido[2,3-b]indol-3-yl]-1-methyl-4-oxo-1,8-naphthyridine-3-carboxylic acid], the IC50 (S. aureus (ATCC29213)) was less than 0.098 µM.
For `CNc1cc(F)c(F)c2c1[nH]c1ncc(-c3cnc4c(c3)c(=O)c(C(=O)O)cn4C)c(N3CCC[C@]4(C[C@@H]4N)C3)c12` [Example 6.02, 6-[4-[(2S,3S)-2-amino-5-azaspiro[2.5]octan-5-yl]-5,6-difluoro-8-(methylamino)-9H-pyrido[2,3-b]indol-3-yl]-1-methyl-4-oxo-1,8-naphthyridine-3-carboxylic acid], the IC50 (S. aureus (ATCC29213)) was less than 0.098 µM.
